In ChEMBL document CHEMBL4483862, “Open-source discovery of chemical leads for next-generation chemoprotective antimalarials” (2018):

System: Plasmodium berghei
Assay: Luciferase/luciferin-expressing antifolate-resistant parasites were used to infect a culture of HepG2 cells that were pre-incubated with compounds. Infected hepatocytes emit light due to the luciferase reaction. Assay results are presented as the percent inhibition of light emission compared to control. […]
Type: functional
Settings: sporozoite; for IC90: read-out: LUCIFERASE INFECTION ASSAY - IC90
[1] = read-out: LUCIFERASE INFECTION ASSAY - IC50

SMILES	IC90 [µM]	also measured
COc1cccc(C2c3sc(=O)[nH]c3SC3C4CCC(C4)C23)c1O (stereo not given)	> 9.13	IC50 (FFLUC_HILL_SLOPE 0.571, FFLUC_R_SQUARED 0.432, read-out: LUCIFERASE INFECTION ASSAY - IC50): > 9.13 µM
O=c1nc(Nc2ccc(SC(F)(F)F)cc2)c2ccccc2o1	0.441	IC50 (PBLUC_HILL_SLOPE 2.14, PBLUC_R_SQUARED 0.975, read-out: LUCIFERASE INFECTION ASSAY - IC50): 0.158 µM
CNc1nc2cnc(Nc3cc(C(F)(F)F)ccc3F)cc2n1Cc1ccccc1	> 10	IC50 [1]: > 10 µM
CS(=O)(=O)N1CCCc2cc(-c3csc(Nc4ccccn4)n3)ccc21	2.51	IC50 (HEPG2TOX_HILL_SLOPE 15.9, HEPG2TOX_R_SQUARED 0.84, PBLUC_HILL_SLOPE 1.6, PBLUC_R_SQUARED 0.55, read-out: LUCIFERASE INFECTION ASSAY - IC50): 0.637 µM
CO/N=C1\CC(C)(C)Cc2c(-c3ccn(S(=O)(=O)c4ccc(Cl)cc4)n3)sc(SC)c21	> 6.65	IC50 (FFLUC_HILL_SLOPE 0.891, FFLUC_R_SQUARED 0.151, read-out: LUCIFERASE INFECTION ASSAY - IC50): > 6.65 µM
O=C(N/N=C/c1c(-c2ccccc2)nc2sc3c(n12)CCCC3)c1ccccc1	0.858	IC50 (FFLUC_HILL_SLOPE 0.805, FFLUC_R_SQUARED 0.757, PBLUC_HILL_SLOPE 1.27, PBLUC_R_SQUARED 0.855, read-out: LUCIFERASE INFECTION ASSAY - IC50): 0.153 µM
CS(=O)(=O)Nc1cccc(-c2cnc3ccc(Cc4ccc(F)cc4)nn23)c1	5.12	IC50 (PBLUC_HILL_SLOPE 7.81, PBLUC_R_SQUARED 0.241, read-out: LUCIFERASE INFECTION ASSAY - IC50): 3.87 µM
O=c1[nH]c2ccc(NCc3cc(Cl)ccc3OCc3ccc(F)cc3)cc2[nH]1	> 8.29	IC50 [1]: > 8.29 µM
Cc1[nH]ncc1CCCNc1nc(-c2ccsc2)nc2ccccc12	> 10	IC50 (PBLUC_HILL_SLOPE 1.72, 3.12, PBLUC_R_SQUARED 0.159, 0.360, read-out: LUCIFERASE INFECTION ASSAY - IC50): 5.35 µM
CS(=O)(=O)Nc1cccc(-c2cnc3sc(NCCOc4ccccc4)nn23)c1	> 7.68	IC50 (PBLUC_HILL_SLOPE 4.91, PBLUC_R_SQUARED 0.558, read-out: LUCIFERASE INFECTION ASSAY - IC50): 5.02 µM
COc1ccccc1N(Cc1nc(N)nc(Nc2ccc(C)cc2)n1)S(=O)(=O)c1cccs1	4.3	IC50 (HEPG2TOX_HILL_SLOPE 0.853, HEPG2TOX_R_SQUARED 0.978, PBLUC_HILL_SLOPE 2.92, PBLUC_R_SQUARED 0.627, read-out: LUCIFERASE INFECTION ASSAY - IC50): 2.03 µM
FC(F)(F)c1ccc(Nc2n[nH]c(=S)s2)cc1	> 11.9	IC50 (PBLUC_HILL_SLOPE 2.58, PBLUC_R_SQUARED 0.163, read-out: LUCIFERASE INFECTION ASSAY - IC50): 8.08 µM
COc1ccc(CCN(C)CC(O)COc2ccc(C(C)(C)CC(C)(C)C)cc2)cc1OC (stereo not given)	> 10	IC50 (PBLUC_HILL_SLOPE 3.04, PBLUC_R_SQUARED 0.101, read-out: LUCIFERASE INFECTION ASSAY - IC50): 9.63 µM
Cc1cc(C)cc(C(=O)NCC(=O)N(C)Cc2cn(-c3ccccc3)nc2-c2ccccc2)c1	> 10	IC50 (PBLUC_HILL_SLOPE 2.80, 14.9, PBLUC_R_SQUARED 0.685, 0.405, read-out: LUCIFERASE INFECTION ASSAY - IC50): 7.57 µM
CCOC(=O)c1c(-c2ccccc2)oc2ccc(NS(=O)(=O)c3ccc(CC)cc3)cc12	9.53	IC50 (FFLUC_HILL_SLOPE 0.825, FFLUC_R_SQUARED 0.206, HEPG2TOX_HILL_SLOPE 3.18, HEPG2TOX_R_SQUARED 0.941, PBLUC_HILL_SLOPE 22.5, PBLUC_R_SQUARED 0.586, read-out: LUCIFERASE INFECTION ASSAY - IC50): 8.65 µM
O=C(CSc1ccc(S(=O)(=O)N2CCCCCC2)cn1)N1CCN(c2ccccc2F)CC1	> 10	IC50 (HEPG2TOX_HILL_SLOPE 8.02, HEPG2TOX_R_SQUARED 0.252, PBLUC_HILL_SLOPE 16.3, 0.0846, PBLUC_R_SQUARED 0.285, 0.0684, read-out: LUCIFERASE INFECTION ASSAY - IC50): 9.76 µM
CCOc1cc(/C=C2\CN(C)C/C(=C\c3ccc(O)c(OCC)c3)C2=O)ccc1O	6.75	IC50 (HEPG2TOX_HILL_SLOPE 12.2, HEPG2TOX_R_SQUARED 0.94, PBLUC_HILL_SLOPE 1.92, PBLUC_R_SQUARED 0.794, read-out: LUCIFERASE INFECTION ASSAY - IC50): 2.16 µM
O=[N+]([O-])c1ccc(O)c(CNc2ncnc3sc4c(c23)CCCC4)c1	8.25	IC50 (HEPG2TOX_HILL_SLOPE 12, HEPG2TOX_R_SQUARED 0.784, PBLUC_HILL_SLOPE 5.09, 13.1, PBLUC_R_SQUARED 0.860, 0.272, read-out: LUCIFERASE INFECTION ASSAY - IC50): 7.21 µM
COc1ccc(O)c(C(=O)c2c[nH]c(C(=O)N3CCCC3)c2)c1	> 10	IC50 (HEPG2TOX_HILL_SLOPE 3.52, HEPG2TOX_R_SQUARED 0.659, PBLUC_HILL_SLOPE 0.979, PBLUC_R_SQUARED 0.275, read-out: LUCIFERASE INFECTION ASSAY - IC50): > 10 µM
Cc1sc2nc(-c3cccnc3)nc(NCC(c3ccco3)N(C)C)c2c1C (stereo not given)	> 10	IC50 [1]: > 10 µM

SMILES	IC90 [µM]	also measured
COc1ccccc1CNC(=O)CN1CCN(c2cc(C)nc(C(C)C)n2)CC1	> 10	IC50 [1]: > 10 µM
Cc1cc(Nc2ccc3c(=O)c(-c4c(F)cccc4Cl)c(C)oc3c2)no1	> 10	IC50 (HEPG2TOX_HILL_SLOPE 11.5, HEPG2TOX_R_SQUARED 0.0504, PBLUC_HILL_SLOPE 0.784, PBLUC_R_SQUARED 0.684, read-out: LUCIFERASE INFECTION ASSAY - IC50): 1.11 µM
O=S(=O)(Nc1cccc(C(F)(F)F)c1)c1ccc(S(=O)(=O)c2ncc(C(F)(F)F)cc2Cl)s1	> 5.99	IC50 [1]: > 5.99 µM
Cn1cc(CN2CCC3(CC2)C(=O)N(CCCc2cccnc2)C(=O)N3Cc2ccccc2)c2ccccc21	> 6.33	IC50 (PBLUC_HILL_SLOPE 1.35, PBLUC_R_SQUARED 0.738, read-out: LUCIFERASE INFECTION ASSAY - IC50): 3.23 µM
c1ccc(SCc2ccc(-c3nc4ccccc4s3)cc2)nc1	8.53	IC50 (HEPG2TOX_HILL_SLOPE 2.39, HEPG2TOX_R_SQUARED 0.939, PBLUC_HILL_SLOPE 0.884, PBLUC_R_SQUARED 0.644, read-out: LUCIFERASE INFECTION ASSAY - IC50): 0.71 µM
CC1(C)CS/C(=N\Cc2ccccc2)N1C(=O)C(c1ccccc1)c1ccccc1	> 10	IC50 (PBLUC_HILL_SLOPE 1.51, PBLUC_R_SQUARED 0.0539, read-out: LUCIFERASE INFECTION ASSAY - IC50): > 10 µM
Cc1ccc(OCC(=O)Nc2cc(NC(=O)c3ccco3)ccc2C)c(C)c1	8.08	IC50 (PBLUC_HILL_SLOPE 1.36, PBLUC_R_SQUARED 0.771, read-out: LUCIFERASE INFECTION ASSAY - IC50): 1.61 µM
CC1CCN(Cc2c(-c3ccccc3)n(C)c3ccccc23)CC1	> 10	IC50 [1]: > 10 µM
c1ccc(Oc2ccccc2-c2cnc3c(NCc4cccs4)nccn23)cc1	> 8.28	IC50 [1]: 4.96 µM
CC(C)c1ccc(C(=O)CSc2nc(N)cc(N)n2)c(C(C)C)c1	> 10	IC50 (PBLUC_HILL_SLOPE 15.6, PBLUC_R_SQUARED 0.415, read-out: LUCIFERASE INFECTION ASSAY - IC50): 9.92 µM
CC(=O)NCCCc1ccc(C(=O)COC(=O)c2ccccc2-n2cnnn2)cc1	2.51	IC50 (PBLUC_HILL_SLOPE 3.15, PBLUC_R_SQUARED 0.801, read-out: LUCIFERASE INFECTION ASSAY - IC50): 1.25 µM
Cc1csc(NC(=O)Nc2cc(C(F)(F)F)cc(C(F)(F)F)c2)c1Cl	2.61	IC50 (HEPG2TOX_HILL_SLOPE 3.35, HEPG2TOX_R_SQUARED 0.976, PBLUC_HILL_SLOPE 39.1, PBLUC_R_SQUARED 0.116, read-out: LUCIFERASE INFECTION ASSAY - IC50): 2.47 µM
Cc1ccc2c(c1)C(=O)C(=O)N2CCN1CCCCC1	> 12.1	IC50 (FFLUC_HILL_SLOPE 11.5, FFLUC_R_SQUARED 0.31, read-out: LUCIFERASE INFECTION ASSAY - IC50): > 12.1 µM
COc1ccc(/C=C/c2nc3cc(-c4nc5ccccc5[nH]4)ccc3s2)cc1	4.48	IC50 [1]: 1.84 µM
COc1ccc(O)c(C(=O)c2cnc3cc4c(cc3c2)OCCO4)c1	1.21	IC50 (HEPG2TOX_HILL_SLOPE 0.562, HEPG2TOX_R_SQUARED 0.791, PBLUC_HILL_SLOPE 0.753, PBLUC_R_SQUARED 0.781, read-out: LUCIFERASE INFECTION ASSAY - IC50): 0.0655 µM
COC(=O)c1ccc(C(=O)OC)c(N2C(=O)C=CC2=O)c1	> 11.4	IC50 (FFLUC_HILL_SLOPE 12.8, FFLUC_R_SQUARED 0.0109, PBLUC_HILL_SLOPE 0.51, PBLUC_R_SQUARED 0.565, read-out: LUCIFERASE INFECTION ASSAY - IC50): 0.503 µM
NC(=O)C(C(=O)/C=C/c1c(Cl)cccc1Cl)=C1SCS1	> 10	IC50 (PBLUC_HILL_SLOPE 3.86, PBLUC_R_SQUARED 0.315, read-out: LUCIFERASE INFECTION ASSAY - IC50): 6.18 µM
Nc1nc(SCc2cc(=O)n3c(n2)sc2ccccc23)nc2sccc12	> 10	IC50 [1]: > 10 µM
Clc1ccccc1COc1ccccc1CNCc1cccnc1	> 9.74	IC50 [1]: > 9.74 µM
Cc1cc[n+](CC(=O)Nc2ccc(Br)c(C)c2)cc1	> 10	IC50 (HEPG2TOX_HILL_SLOPE 5.04, HEPG2TOX_R_SQUARED 0.103, PBLUC_HILL_SLOPE 18.3, PBLUC_R_SQUARED 0.0767, read-out: LUCIFERASE INFECTION ASSAY - IC50): 9.35 µM
